Where two headings read alike, the source gives them in different places.
Columns and labels:
[1] = target: T1, rNav1.2 sodium channels (HEK-293 cells) (Rattus norvegicus, UniProt P04775); experiment: 5 Hz train protocol, QPatch automated patch-clamp; assay type: cell-based; conditions: for Rev (reversibility): Rev = A5/A1 after washout; for potency: in words;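 as to UD (use-dependence of the inhibition): UD = (A3/A4)/(A1/A2) as ratios of peak amplitudes from Figure 1A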
Summary of the method: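 rNav1.2 in stable HEK-293 cells, QPatch whole-cell; 5 Hz trains of five pulses from −90 to −10 mV, repeated every 20 s; 10 control trains, 10 with drug, then washout. Inhibition of peak current at a single concentration gave IC50; reversibility, use-dependence and τoff also derived.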

[2] = target: T1, rNav1.2 sodium channels (HEK-293 cells); experiment: steady-state inactivation protocol (availability curves), QPatch automated patch-clamp; assay type: cell-based
Summary of the method: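 HEK-293 cells stably expressing rat Nav1.2, recorded by automated patch clamp in extracellular solution pH 7.3 containing CdCl2 and TEA. Availability measured with 400 ms pre-pulses from −150 to −30 mV, then a 10 ms test pulse to −10 mV. Kr, Ki (four-state model) and Kr/Ki state-dependence derived from inhibition and ΔV1/2.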

[3] = target: sodium channels; conditions: cited from earlier work; for Ki: read-out: Ki−Lit; for Kd: read-out: Kr−Lit
[4] = test system: sodium channels; conditions: cited from earlier work
[5] = human plasma, cited from earlier work
[6] = 300 μM, 3 s assigned where too short to be resolved
[7] = HEK293, read-out: IC50, calculated from Inh at single concentration 300 μM, −90 mV, 5 Hz train
[8] = HEK293, read-out: Inh (inhibited fraction)
[9] = HEK293, read-out: Inh (inhibited fraction) at holding potential −150 mV
[10] = arithmetic mean, 300 µM, read-out: Ki-Kapp arith
[11] = arithmetic mean, 300 µM, read-out: Ki-ΔV1/2 arith
[12] = arithmetic mean, 300 µM, read-out: Kr arith
[13] = geometric mean, from Inh at −150 mV, 300 µM, read-out: Kr (resting state affinity)
[14] = geometric mean, from apparent affinity, 300 µM, read-out: Ki−Kapp (inactivated state affinity)
[15] = geometric mean, from shift of availability curve, 300 µM, read-out: Ki−ΔV1/2 (inactivated state affinity)
[16] = HEK293, read-out: IC50, calculated from Inh at single concentration 100 μM, −90 mV, 5 Hz train
[17] = 100 μM, 500 s assigned where irreversible
[18] = arithmetic mean, 100 µM, read-out: Ki-Kapp arith
[19] = arithmetic mean, 100 µM, read-out: Ki-ΔV1/2 arith
[20] = arithmetic mean, 100 µM, read-out: Kr arith
[21] = geometric mean, from Inh at −150 mV, 100 µM, read-out: Kr (resting state affinity)
[22] = geometric mean, from apparent affinity, 100 µM, read-out: Ki−Kapp (inactivated state affinity)
[23] = geometric mean, from shift of availability curve, 100 µM, read-out: Ki−ΔV1/2 (inactivated state affinity)

T1 sequence (P04775 whole entry): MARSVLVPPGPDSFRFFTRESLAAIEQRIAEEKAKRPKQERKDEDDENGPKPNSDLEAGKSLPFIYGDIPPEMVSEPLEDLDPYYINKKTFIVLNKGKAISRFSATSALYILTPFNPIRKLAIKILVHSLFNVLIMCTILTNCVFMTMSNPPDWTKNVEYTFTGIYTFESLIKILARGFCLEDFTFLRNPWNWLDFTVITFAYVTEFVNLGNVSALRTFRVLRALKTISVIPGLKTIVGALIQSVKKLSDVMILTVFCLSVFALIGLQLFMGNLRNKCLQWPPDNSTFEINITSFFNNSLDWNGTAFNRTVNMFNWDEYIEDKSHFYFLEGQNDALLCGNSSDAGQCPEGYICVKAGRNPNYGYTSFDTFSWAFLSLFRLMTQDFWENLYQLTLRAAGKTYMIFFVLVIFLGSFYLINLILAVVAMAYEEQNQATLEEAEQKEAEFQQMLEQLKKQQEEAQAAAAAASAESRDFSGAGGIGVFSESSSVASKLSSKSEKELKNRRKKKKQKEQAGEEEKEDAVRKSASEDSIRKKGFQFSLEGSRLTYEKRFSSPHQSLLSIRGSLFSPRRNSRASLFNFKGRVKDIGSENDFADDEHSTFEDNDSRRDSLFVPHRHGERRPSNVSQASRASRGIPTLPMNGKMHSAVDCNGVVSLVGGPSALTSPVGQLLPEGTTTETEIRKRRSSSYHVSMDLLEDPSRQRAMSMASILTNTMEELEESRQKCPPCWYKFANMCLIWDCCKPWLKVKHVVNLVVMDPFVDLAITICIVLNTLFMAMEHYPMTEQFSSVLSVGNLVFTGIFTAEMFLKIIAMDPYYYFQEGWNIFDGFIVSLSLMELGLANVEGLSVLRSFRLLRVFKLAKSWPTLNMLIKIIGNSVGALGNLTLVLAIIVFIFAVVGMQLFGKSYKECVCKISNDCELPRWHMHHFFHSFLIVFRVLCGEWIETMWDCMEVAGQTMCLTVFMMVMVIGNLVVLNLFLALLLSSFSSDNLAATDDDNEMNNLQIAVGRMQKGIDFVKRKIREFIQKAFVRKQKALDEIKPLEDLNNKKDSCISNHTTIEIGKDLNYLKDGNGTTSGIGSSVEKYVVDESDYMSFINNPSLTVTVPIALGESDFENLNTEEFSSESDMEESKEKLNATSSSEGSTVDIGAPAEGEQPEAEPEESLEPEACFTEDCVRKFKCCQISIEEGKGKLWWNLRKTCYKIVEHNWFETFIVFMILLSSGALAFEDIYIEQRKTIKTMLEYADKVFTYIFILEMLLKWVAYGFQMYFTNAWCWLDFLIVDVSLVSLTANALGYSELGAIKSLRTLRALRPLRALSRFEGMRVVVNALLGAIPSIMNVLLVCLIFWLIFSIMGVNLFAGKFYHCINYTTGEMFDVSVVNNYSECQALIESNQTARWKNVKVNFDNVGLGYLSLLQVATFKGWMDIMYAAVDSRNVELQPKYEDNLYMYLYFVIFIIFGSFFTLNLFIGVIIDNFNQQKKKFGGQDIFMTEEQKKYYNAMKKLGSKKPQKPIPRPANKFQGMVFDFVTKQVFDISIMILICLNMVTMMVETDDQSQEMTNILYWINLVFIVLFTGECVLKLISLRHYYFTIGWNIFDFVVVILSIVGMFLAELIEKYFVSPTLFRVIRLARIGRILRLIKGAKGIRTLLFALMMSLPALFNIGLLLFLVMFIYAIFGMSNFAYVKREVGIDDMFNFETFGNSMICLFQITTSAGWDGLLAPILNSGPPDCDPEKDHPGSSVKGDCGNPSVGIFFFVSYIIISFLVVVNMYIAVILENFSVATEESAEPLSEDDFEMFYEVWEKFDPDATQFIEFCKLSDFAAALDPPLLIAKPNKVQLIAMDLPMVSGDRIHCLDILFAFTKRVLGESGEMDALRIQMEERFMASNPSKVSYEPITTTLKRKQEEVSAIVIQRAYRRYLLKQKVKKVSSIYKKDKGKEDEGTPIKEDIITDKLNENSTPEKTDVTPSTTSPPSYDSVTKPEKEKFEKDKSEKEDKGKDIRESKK

SMILES	τon ([1]; 100 μM)	UD (use-dependence of the inhibition) ([1]; 100 μM, 5 Hz train)	τoff [1, 17]	Rev (reversibility) ([1]; 100 μM)	ΔV1/2 (shift of availability curve) ([2]; 100 μM)	τoff ([1]; 300 μM)	τon [1, 6]	UD (use-dependence of the inhibition) ([1]; 300 μM, 5 Hz train)	Rev (reversibility) ([1]; 300 μM)	Ki [2, 10]	Ki [2, 11]	Kd [2, 12]	Kd [2, 13]	Ki [2, 14]	Ki [2, 15]	Ki ([3]; averaged literature data)	Kd ([3]; averaged literature data)	plasma conc. ([5]; as printed in each cell)	plasma conc. ([5]; as printed in the µg/ml cell)	other results
Nc1nnc(-c2cccc(Cl)c2Cl)c(N)n1 [LTG, Lamotrigine]	–	–	–	–	–	18.1 s	8.19 s	0.97	0.85	40.4 µM	37.3 µM	2330 µM	2270 µM	36.7 µM	31.3 µM	15.1 µM	1560 µM	2.5 [44] µg/ml	9.762 µM	potency estimated from few doses [1, 7]: 905 µM; inhibition at 300 µM [1, 8]: 25%; ΔV1/2 (shift of availability curve) ([2]; 300 μM): −10.3 mV; inhibition at 300 µM [2, 9]: 12%; criterion of at least 60% inhibition at 10 µM concentration [4]: failed to fulfill this criteria
CCN(CC)CC(=O)Nc1c(C)cccc1C [LID, Lidocaine]	–	–	–	–	–	6 s	3 s	1.14	0.95	70.3 µM	114 µM	3340 µM	3190 µM	65.7 µM	89.6 µM	–	–	–	–	potency estimated from few doses [1, 16]: 1050 µM; potency estimated from few doses [1, 7]: 977 µM; potency estimated from few doses ([1]; HEK293, read-out: IC50, calculated from Inh at single concentration 1000 µM): 1270 µM; inhibition at 100 µM [1, 8]: 9%; inhibition at 300 µM [1, 8]: 23%; inhibition at 1000 µM [1, 8]: 44%; potency [1]: among the least potent SCIs; potency estimated from few doses ([1]; read-out: IC50, calculated from Inh at single concentration 300 μM, −90 mV, 5 Hz train): 1080 µM; inhibition at 300 µM [2, 9]: 9%; criterion of at least 60% inhibition at 10 µM concentration [4]: failed to fulfill this criteria
O=C1NC(=O)C(c2ccccc2)(c2ccccc2)N1 [DPH, 5,5-diphenyl-hydantoin]	–	–	–	–	–	15.96 s	5.20 s	1.01	0.75	78.1 µM	172 µM	2950 µM	2540 µM	70.8 µM	150 µM	16.2 µM	701 µM	10 [44] µg/ml	39.64 µM	inhibition at 300 µM ([1]; HEK293, 300 μM, −90 mV holding potential, 5 Hz train, read-out: Inh (inhibited fraction)): 18%; potency estimated from few doses ([1]; HEK293, calculated from Inh at single concentration 300 μM, −90 mV, 5 Hz train, read-out: IC50): 1390 µM; potency [1]: among the least potent SCIs; ΔV1/2 (shift of availability curve) ([2]; 300 μM): −4.93 mV; inhibition at 300 µM ([2]; HEK293, 300 µM, read-out: Inh (inhibited fraction) at holding potential −150 mV): 12%
COc1ccc(C(CN(C)C)C2(O)CCCCC2)cc1 (stereo not shown) [VFX, Venlafaxine]	4.85 s	1.05	5.2 s	0.89	−4.66 mV	–	–	–	–	–	–	–	–	–	–	0.64 µM	–	0.17 [44] µg/ml	0.532 µM	potency estimated from few doses [1, 16]: 727 µM; inhibition at 100 µM [1, 8]: 12%; inhibition at 100 µM [2, 9]: 11%; Ki ([2]; Ki-Kapp arith, arithmetic mean, 100 µM): 72.8 µM; Ki ([2]; Ki-ΔV1/2 arith, arithmetic mean, 100 µM): 75.8 µM; Ki ([2]; Ki−Kapp (inactivated state affinity), geometric mean, from apparent affinity, 100 µM): 63.4 µM; Ki ([2]; Ki−ΔV1/2 (inactivated state affinity), geometric mean, from shift of availability curve, 100 µM): 59.5 µM; Kd ([2]; Kr (resting state affinity), geometric mean, from Inh at −150 mV, 100 µM): 889 µM; Kd ([2]; Kr arith, arithmetic mean, 100 µM): 1000 µM; Kd [3]: 8 µM
CN(C)CCCN1c2ccccc2Sc2ccc(Cl)cc21 [CPM, Chlorpromazine]	–	–	–	–	–	–	–	–	–	–	–	–	–	–	–	0.19 µM	3.18 µM	0.1 [44] µg/ml	0.281 µM	τon ([1]; 30 μM): 14.81 s; UD (use-dependence of the inhibition) ([1]; 30 μM, 5 Hz train): 1.30; τoff ([1]; 30 μM, 500 s assigned where irreversible): 9.67 s; Rev (reversibility) ([1]; 30 μM): 0.07; inhibition at 30 µM ([1]; HEK293, 30 μM, −90 mV holding potential, 5 Hz train, read-out: Inh (inhibited fraction)): 41%; potency estimated from few doses ([1]; HEK293, calculated from Inh at single concentration 30 μM, −90 mV, 5 Hz train, read-out: IC50): 47.3 µM; ΔV1/2 (shift of availability curve) ([2]; 30 μM): −18.4 mV; inhibition at 30 µM ([2]; HEK293, 30 µM, read-out: Inh (inhibited fraction) at holding potential −150 mV): 32%; Ki ([2]; arithmetic mean, 30 µM, read-out: Ki-Kapp arith): 1.03 µM; Ki ([2]; arithmetic mean, 30 µM, read-out: Ki-ΔV1/2 arith): 0.33 µM; Kd ([2]; arithmetic mean, 30 µM, read-out: Kr arith): 85.8 µM; Kd ([2]; geometric mean, from Inh at −150 mV, 30 µM, read-out: Kr (resting state affinity)): 69.6 µM; Ki ([2]; geometric mean, from apparent affinity, 30 µM, read-out: Ki−Kapp (inactivated state affinity)): 0.82 µM; Ki ([2]; geometric mean, from shift of availability curve, 30 µM, read-out: Ki−ΔV1/2 (inactivated state affinity)): 0.29 µM

Continued, in another order:

τon ([1]; 100 μM)	UD (use-dependence of the inhibition) ([1]; 100 μM, 5 Hz train)	τoff [1, 17]	Rev (reversibility) ([1]; 100 μM)	ΔV1/2 (shift of availability curve) ([2]; 100 μM)	SMILES	τoff ([1]; 300 μM)	τon [1, 6]	UD (use-dependence of the inhibition) ([1]; 300 μM, 5 Hz train)	Rev (reversibility) ([1]; 300 μM)	Ki [2, 10]	Ki [2, 11]	Kd [2, 12]	Kd [2, 13]	Ki [2, 14]	Ki [2, 15]	Ki ([3]; averaged literature data)	Kd ([3]; averaged literature data)	plasma conc. ([5]; as printed in each cell)	plasma conc. ([5]; as printed in the µg/ml cell)	other results
4.1 s	1.16	15.21 s	0.8	−7.66 mV	C[Si](C)(Cc1ccc(F)cc1)CN1CCCCC1 [SIL, Silperisone]	–	–	–	–	–	–	–	–	–	–	34.9 µM	340 µM	0.45 [56] µg/ml	1.484 µM	Inh (inhibited fraction) ([1]; 100 μM, −90 mV holding potential, 5 Hz train): 0.45; potency estimated from few doses ([1]; calculated from Inh at single concentration 100 μM, −90 mV, 5 Hz train, read-out: IC50): 121 µM; Inh (inhibited fraction) at holding potential −150 mV ([2]; 100 μM): 0.43; Ki [2, 18]: 7.08 µM; Ki [2, 19]: 14.6 µM; Kd [2, 20]: 135 µM; Kd [2, 21]: 133 µM; Ki [2, 22]: 6.7 µM; Ki [2, 23]: 14 µM
3.51 s	0.99	8.98 s	0.93	−1.77 mV	CC12CC3CC(C)(C1)CC(N)(C3)C2 [MEM, Memantine]	–	–	–	–	–	–	–	–	–	–	6.67 µM	178 µM	0.02 [53] µg/ml	0.075 µM	inhibition at 100 µM ([1]; HEK293, 100 μM, −90 mV holding potential, 5 Hz train, read-out: Inh (inhibited fraction)): 32%; potency estimated from few doses ([1]; HEK293, calculated from Inh at single concentration 100 μM, −90 mV, 5 Hz train, read-out: IC50): 230 µM; inhibition at 100 µM ([2]; HEK293, 100 µM, read-out: Inh (inhibited fraction) at holding potential −150 mV): 29%; Ki [2, 18]: 32.6 µM; Ki [2, 19]: 119 µM; Kd [2, 20]: 248 µM; Kd [2, 21]: 242 µM; Ki [2, 22]: 28.5 µM; Ki [2, 23]: 110 µM

From publication PMC3004914, “Classification of Drugs Based on Properties of Sodium Channel Inhibition: A Comparative Automated Patch-Clamp Study” (PLoS ONE, 2010)
